Patent US20260315499A1, “2'- {HETEROCYCLYL (ARYL/ALKYL) METHYL} - CANNABIDIOL COMPOUNDS AND PROCESS FOR PREPARATION THEREOF” (COUNCIL OF SCIENTIFIC & INDUSTRIAL RESEARCH, priority 2023, published 2026)

Experiment: Cell viability assay in macrophage RAW264.7 cells (MTT)
Type: cell-based
Conditions: mouse, read-out: % cell viability ± SD
Experimental: RAW264.7 cells were seeded in 96-well cell culture plates at a density of 1×10^4 cells per well and incubated overnight at 37° C. with 5% CO2. Next day, the cells were treated with CBD or its derivatives at 5 μM and/or 10 μM concentration for 24 hrs. The MTT dye (2.5 mg/ml, 20 μL) was added to each well 4 hrs before termination (Molecules. 2022, 27, 8068). After 4 hrs of incubation with MTT, the supernatant was discarded, and the formazan crystals were dissolved by adding 100 μL DMSO. The absorbance was recorded at 540 nm on microplate reader (Tecan Infinite Pro).

C=C(C)[C@@H]1CCC(C)=C[C@H]1c1c(O)cc(CCCCC)c(CN2CCOCC2)c1O [A1, 2′-(morpholin-1-ylmethyl)-cannabidiol]
viability at 24 h, 5 µM (RAW264.7, 5 μM): 93.1 ± 1.1%
viability at 24 h, 10 µM (RAW264.7, 10 μM): 83.5 ± 0.6%
